For the assay, the target named is TcMIP (Trypanosoma cruzi, UniProt Q09734). The experiment in a line: biochemical.
TcMIP, sequence (Q09734 30-196 limits assumed): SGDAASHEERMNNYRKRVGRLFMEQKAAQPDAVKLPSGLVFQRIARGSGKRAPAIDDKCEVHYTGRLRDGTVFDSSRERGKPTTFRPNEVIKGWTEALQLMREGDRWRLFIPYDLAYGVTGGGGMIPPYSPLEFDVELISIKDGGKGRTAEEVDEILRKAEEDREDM

The term Kd denotes a measure of binding affinity in units of concentration. A lower Kd goes with higher affinity. As for `O=C1[C@@H]2CCC[C@H]([C@@H](CO)CN1Cc1ccccn1)N2S(=O)(=O)c1cc(Cl)cc(Cl)c1` [JK095, (1S,5S,6R)-10-((3,5-dichlorophenyl)sulfonyl)-5-(hydroxymethyl)-3-(pyridin-2-ylmethyl)-3,10-diazabicyclo [4.3.1]decan-2-one], the Kd stood at 599 ± 25.5 nM. In turn, `C[C@@H](c1ccccn1)N1C[C@H](CO)[C@H]2CCC[C@@H](C1=O)N2S(=O)(=O)c1cc(Cl)cc(Cl)c1` [JK236] returned a Kd of 45.5 ± 9.2 nM.
